According to publication PMC12036578, “Expression and molecular characterization of an intriguing hyaluronan synthase (HAS) from the symbiont “Candidatus Mycoplasma liparidae” in snailfish” (PeerJ, 2025):
Read-outs that look alike come from different tables or passages of the source.

Assays:
snHAS [1] = test: HA formation by HABP-HRP HA detection kit (TMB, OD450), Michaelis-Menten fit; type: biochemical, Candidatus Mycoplasma liparidae; settings: 15 mM MgCl2, 50 mM PBS, 5 mM DTT, 37 °C, 30 µM enzyme
snHAS [2] = test: as above; type: biochemical, Candidatus Mycoplasma liparidae; settings: 15 mM MgCl2, 50 mM PBS, 5 mM DTT, 37 °C, 30 µM enzyme, read-out: snHASE173D
Text: HA formation by HABP-HRP HA detection kit (TMB, OD450), Michaelis-Menten fit on snHAS

Structure (SMILES) | Km (snHAS [1]; 1 mM UDP-GlcNAc fixed) | Km (snHAS [2]; 1 mM UDP-GlcNAc fixed) | Km (snHAS [1]; 1 mM UDP-GlcA fixed) | Km (snHAS [2]; 1 mM UDP-GlcA fixed)
O=C(O)[C@H]1O[C@H](OP(=O)(O)OP(=O)(O)OC[C@H]2O[C@@H](n3ccc(=O)[nH]c3=O)[C@H](O)[C@@H]2O)[C@H](O)[C@@H](O)[C@@H]1O [UDP-GlcA] | 39 ± 5 µM | 210 ± 20 µM | – | –
CC(=O)N[C@H]1[C@@H](OP(=O)(O)OP(=O)(O)OC[C@H]2O[C@@H](n3ccc(=O)[nH]c3=O)[C@H](O)[C@@H]2O)O[C@H](CO)[C@@H](O)[C@@H]1O [UDP-GlcNAc] | – | – | 258 ± 45 µM | 410 ± 70 µM
